Source: PMC5962679 (Frontiers in Cellular and Infection Microbiology, 2018)
Ends that are not written are not given here.

Assays:
Test in all cases: biochemical
Assay type in all cases: binding
Conditions in all cases: for inhibition at 250 µM: 24 h, read-out: Binding percentage
HLA-DRB1*0401 = biological target: T1, HLA-DRB1*0401 (Homo sapiens, UniProt P01903+P01911, A100K/A169T/F76Y/I96L/K127E/L162R/M171V/N62H/P40V/Q125Y/R42H/S133A/S149N/S66Y/V115G/V209L/W38E)
T1 construct: homozygous lymphoblastoid B-cell lines (International Histocompatibility Working Group); host or cells: human HLA-DRB1*0401 homozygous lymphoblastoid B-cell line

HLA-DRB1*0701 = HLA-DRB1*0701 (Homo sapiens, UniProt P01903+P01911, A100R/A102G/A103Q/D57E/D86V/E43K/F76Y/K127E/L162R/M171V/P40G/Q125H/Q99D/R33Q/R42Y/R54Q/S133A/S66F/T210M/V115G/Y107V/Y59L/Y89S)
HLA-DRB1*1101 = HLA-DRB1*1101 (Homo sapiens, UniProt P01903+P01911, A100R/A169T/A87E/I96F/K41T/L162R/M171V/P40S/Q125H/Q178H/Q39Y/Q99D/R42S/S66Y/T262R/V115G/W38E)
HLA-DRB1*1302 = HLA-DRB1*1302 (Homo sapiens, UniProt P01903+P01911, A100E/A169T/K41T/L162R/M171V/P40S/Q125H/Q178H/Q39Y/Q99D/R42S/S66N/T262R/V115G/W38E/Y61H)
Chain of HLA-DRB1*1302 (P01903 26-254 limits assumed, other chains not shown): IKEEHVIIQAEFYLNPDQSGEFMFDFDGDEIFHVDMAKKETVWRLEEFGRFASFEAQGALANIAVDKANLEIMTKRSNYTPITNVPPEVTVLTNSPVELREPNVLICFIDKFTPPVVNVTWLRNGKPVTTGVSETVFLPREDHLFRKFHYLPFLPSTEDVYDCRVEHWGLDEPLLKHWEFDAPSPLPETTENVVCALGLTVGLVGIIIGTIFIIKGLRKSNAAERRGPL

Chain of HLA-DRB1*1101 (P01903 26-254 limits assumed, other chains not shown): as above

| Sequence | inhibition at 250 µM (HLA-DRB1*0401) | inhibition at 250 µM (HLA-DRB1*0701) | inhibition at 250 µM (HLA-DRB1*1101) | IC50 (HLA-DRB1*1302) | inhibition at 250 µM (HLA-DRB1*1302) | IC50 (HLA-DRB1*0401) | IC50 (HLA-DRB1*0701) | IC50 (HLA-DRB1*1101) |
| --- | --- | --- | --- | --- | --- | --- | --- | --- |
| LKFIVRGNNLKFLNN [compound 39154] | 22.2% | 43.7% | 24.9% | 6.5 µM | 90.1% |  |  |  |
| RGPVNYHFSNYMNLD [compound 39047] | 59.8% | 90.4% | 0% |  | 37.8% | 54.5 µM | 6 µM |  |
| MKLLQHIPANLLENI [compound 39153] | 61.2% | 85.4% | 72.7% | 10.7 µM | 91.9% | 57 µM | 7.5 µM | 52.1 µM |
| LFYVNLFIMSSLSRK [compound 39152] | 65.8% | 11% | 91.8% | 8 µM | 94.7% | 2.8 µM |  | 1.9 µM |
